Assay results as given in patent US20180162844A1, “CYCLOPROPANE DERIVATIVE AND DRUG CONTAINING SAME” (EA PHARMA CO., LTD., priority 2015, published 2018).
pIC50: −log10 of the molar value.

Biological target: T1, human TRPA1 (Homo sapiens, UniProt O75762)
T1 construct: full-length human TRPA1 gene was amplified; expressed in transfected cells; host or cells: Human embryonic kidney-derived 293T cells, transient transfection with pcDNA3.1/zeo(+) human TRPA1 expression plasmid
Experiment: Measurement of TRPA1 antagonist activity (intracellular calcium increase, allylisothiocyanate stimulation, 293T cells transfected with human TRPA1 expression plasmid)
Assay type: cell-based
Details: Comparative Examples (Table 8-2); 293T cells expressing human TRPA1, allylisothiocyanate stimulation, FLIPR Calcium4, test substance added 10 min before AITC; read-out: hTRPA1 IC50
Protocol: Experimental Example 1: Measurement of TRPA1 antagonist Activity
Human TRPA1 Expression Plasmid
Using cDNA encoding human TRPA1 (GenBank accession No. NM_007332) (manufactured by Kazusa DNA Research Institute, item No.: FHC07217) as a template, primer 1 (SEQ ID NO: 1) and primer 2 (SEQ ID NO: 2), PCR by PfuUltra High-Fidelity DNA Polymerase (Stratagene) was performed, and full-length human TRPA1 gene was amplified.
A recognition site (underlined) of restriction enzyme HindIII was added to the 5′ end of human TRPA1 gene, and XbaI site (underlined) was added to the 3′ end of human TRPA1 gene, and GTT of the template sequence was changed to termination codon TAG (bold). The obtained double stranded DNA was enzyme-digested with HindIII and XbaI, and introduced into a multicloning site of expression plasmid pcDNA3.1/zeo(+) (manufactured by Invitrogen) to give a human TRPA1 expression plasmid.
Human embryonic kidney-derived 293T cells were cultured in Dulbecco's Modified Eagle Medium containing 10% fetal bovine serum, 10 unit penicillin, and 10 μg streptomycin. One day before assay, 3×10^6 of 293T cells were plated on a petri dish having a diameter of 10 cm, and cultured in a CO2 incubator for 24 hr. OPTI-MEM I Reduced Serum Media (Invitrogen). (600 μL), Mirus TransIT-293 (Mirus Bio) (18 μL), and human TRPA1 expression plasmid (6 μg) were mixed, the total amount of the mixture was added to the cells on the petri dish to allow for gene transfer. The cells were recovered about for 8 hr later, plated on a poly-D-lysine coated 384 well black/clear bottom plate at 12,000 cells/well, and cultured overnight.
Measurement of Intracellular Calcium Increase
The medium was removed from the 384 well plate, calcium indicator (Molecular Device, trade name: FLIPR Calcium4 Assay Kit) dissolved in HBSS (Thermo Fisher Scientific) (pH 7.2) containing 20 mM HEPES was added (38 μL/well), and the cells were stained in a CO2 incubator for 1 hr. The 384 well plate was stood at room temperature for not less than 15 min, set on FDSS7000 (Hamamatsu Photonics K.K.), and a test substance solution was added at 10 μL/well. After 10 min, allylisothiocyanate solution (12 μL/well) was added, the relative fluorescence intensity was measured for 5 min after addition of the allylisothiocyanate solution.
Preparation of Test Substance Solution and Allylisothiocyanate Solution
A test substance solution was prepared to have a composition of HBSS (Thermo Fisher Scientific) (pH 7.2) containing 0.48% dimethyl sulfoxide, a test substance at 4.8-fold concentration of the evaluation concentration, 0.1% bovine serum albumin and 20 mM HEPES. An allylisothiocyanate solution was prepared to have a composition of HBSS (Thermo Fisher Scientific) (pH 7.2) containing 0.1% dimethyl sulfoxide, 100 μM allylisothiocyanate, 0.1% bovine serum albumin and 20 mM HEPES.
Calculation of Antagonist Activity
The activity rate of a test substance at each concentration was calculated, wherein the relative fluorescence intensity change of a well free of a test substance and containing allylisothiocyanate is 100% activity rate, and the relative fluorescence intensity change of a well free of a test substance and allylisothiocyanate is 0% activity rate. The inhibitory rate of a test substance at each concentration was calculated by subtracting the activity rate of the test substance from 100% activity rate, and the concentration of a test substance showing 50% inhibitory rate was calculated as IC50 from the sigmoid approximate curve by XLFit (idbs).

T1 sequence (O75762 whole entry): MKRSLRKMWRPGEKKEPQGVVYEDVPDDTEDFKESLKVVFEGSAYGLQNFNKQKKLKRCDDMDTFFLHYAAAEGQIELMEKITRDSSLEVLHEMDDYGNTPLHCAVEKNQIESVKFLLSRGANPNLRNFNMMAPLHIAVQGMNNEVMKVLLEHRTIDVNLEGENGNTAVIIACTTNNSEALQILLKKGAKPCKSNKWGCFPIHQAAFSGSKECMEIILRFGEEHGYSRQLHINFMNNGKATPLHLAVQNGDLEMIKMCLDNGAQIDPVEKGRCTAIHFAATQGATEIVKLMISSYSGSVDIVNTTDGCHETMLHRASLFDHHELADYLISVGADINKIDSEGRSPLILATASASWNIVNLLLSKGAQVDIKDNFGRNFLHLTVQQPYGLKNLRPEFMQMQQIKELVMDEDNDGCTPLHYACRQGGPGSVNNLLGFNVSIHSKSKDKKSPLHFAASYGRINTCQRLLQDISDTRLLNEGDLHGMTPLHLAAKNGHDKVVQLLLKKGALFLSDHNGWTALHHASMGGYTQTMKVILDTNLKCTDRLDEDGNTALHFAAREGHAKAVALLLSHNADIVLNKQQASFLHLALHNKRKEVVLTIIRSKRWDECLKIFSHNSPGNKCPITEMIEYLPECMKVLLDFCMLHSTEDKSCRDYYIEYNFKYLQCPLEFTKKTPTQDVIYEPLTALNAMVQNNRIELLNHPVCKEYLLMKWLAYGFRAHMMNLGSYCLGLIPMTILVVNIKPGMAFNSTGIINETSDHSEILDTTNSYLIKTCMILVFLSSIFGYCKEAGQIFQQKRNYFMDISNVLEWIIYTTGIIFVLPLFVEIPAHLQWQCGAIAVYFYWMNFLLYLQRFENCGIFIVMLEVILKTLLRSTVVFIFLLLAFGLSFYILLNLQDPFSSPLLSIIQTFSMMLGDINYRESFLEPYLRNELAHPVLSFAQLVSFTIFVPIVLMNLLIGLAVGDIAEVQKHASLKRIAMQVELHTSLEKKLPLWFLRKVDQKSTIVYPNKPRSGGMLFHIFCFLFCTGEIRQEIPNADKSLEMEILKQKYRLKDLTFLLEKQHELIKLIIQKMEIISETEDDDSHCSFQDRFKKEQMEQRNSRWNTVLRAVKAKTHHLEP

Point of comparison: CC(C)N(C1(C(=O)NCc2cc(-c3ccc(C(F)(F)F)nc3)ncn2)CC1)S(=O)(=O)c1ccc(F)cc1 [Comparative Example 1, 1-[(4-fluorophenyl)sulfonyl-isopropyl-amino]-N-[[6-[6-(trifluoromethyl)-3-pyridyl]pyrimidin-4-yl]methyl]cyclopropanecarboxamide, reference compound], pIC50 6.74. Against it:
- O=C(NCc1cc(-c2ccc(C(F)(F)F)cc2)nc(N2CCCC2)c1)C1(NS(=O)(=O)c2ccco2)CC1 [Comparative Example 3, 1-(2-furylsulfonylamino)-N-[[2-pyrrolidin-1-yl-6-[4-(trifluoromethyl)phenyl]-4-pyridyl]methyl]cyclopropanecarboxamide, reference compound] — lower, < 6.00

Same assay, conditions: Examples (Table 8-1); 293T cells expressing human TRPA1, allylisothiocyanate stimulation, FLIPR Calcium4, test substance added 10 min before AITC; read-out: hTRPA1 IC50

Point of comparison: CN(C1(C(=O)NCc2cc(-c3ccc(C(F)(F)F)cn3)ccn2)CC1)S(=O)(=O)c1cc2cc(F)ccc2o1 [Example 29, 1-[(5-fluorobenzofuran-2-yl)sulfonyl-methyl-amino]-N-[[4-[5-(trifluoromethyl)-2-pyridyl]-2-pyridyl]methyl]-cyclopropanecarboxamide], pIC50 8.92. Against it:
- CN(C)c1nc(CNC(=O)C2(NS(=O)(=O)c3cc4cc(F)ccc4o3)CC2)cc(-c2ccc(C(F)(F)F)cc2)n1 [Example 19] — 1.50 log units lower, 7.42
- O=C(NCc1ccnc(-c2ccc(C(F)(F)F)cc2O)c1)C1(NS(=O)(=O)c2cc3cc(F)ccc3o2)CC1 [Example 3, 1-[(5-fluorobenzofuran-2-yl)sulfonylamino]-N-[[2-[2-hydroxy-4-(trifluoromethyl)phenyl]-4-pyridyl]methyl]cyclopropane-carboxamide] — 1.78 log units lower, 7.14
- O=C(NCc1cc(-c2ncc(C(F)(F)F)cn2)ccn1)C1(NS(=O)(=O)c2cc3cc(F)ccc3o2)CC1 [Example 6, 1-[(5-fluorobenzofuran-2-yl)sulfonylamino]-N-[[4-[5-(trifluoromethyl)pyrimidin-2-yl]-2-pyridyl]methyl]cyclopropane-carboxamide] — 2.28 log units lower, 6.64
- O=C(NCc1cc(-c2ccc(C(F)(F)F)cn2)ccn1)C1(NS(=O)(=O)c2cc3cc(F)ccc3o2)CC1 [Example 4, 1-[(5-fluorobenzofuran-2-yl)sulfonylamino]-N-[[4-[5-(trifluoromethyl)-2-pyridyl]-2-pyridyl]methyl]cyclopropane-carboxamide] — 1.26 log units lower, 7.66
- O=C(NCc1cc(-c2ccc(C(F)(F)F)cn2)ccn1)C1(NS(=O)(=O)c2cc3ccccc3o2)CC1 [Example 22, 1-(benzofuran-2-ylsulfonylamino)-N-[[4-[5-(trifluoromethyl)-2-pyridyl]-2-pyridyl]methyl]-cyclopropanecarboxamide] — 2.03 log units lower, 6.89
- O=C(NCc1cc(-c2ccc(C(F)(F)F)cc2)ncn1)C1(NS(=O)(=O)c2cc3cnccc3o2)CC1 [Example 26, 1-(furo[3,2-c]pyridin-2-ylsulfonylamino)-N-[[6-[4-(trifluoromethyl)phenyl]pyrimidin-4-yl]methyl]cyclopropanecarboxamide] — 1.57 log units lower, 7.35
- O=C(NCc1cc(-c2ccc(C(F)(F)F)cc2)nc(N2CCCC2)c1)C1(NS(=O)(=O)c2cc3cc(F)ccc3o2)CC1 [Example 27, 1-[(5-fluorobenzofuran-2-yl)sulfonylamino]-N-[[2-pyrrolidin-1-yl-6-[4-(trifluoromethyl)phenyl]-4-pyridyl]methyl]-cyclopropanecarboxamide] — 1.85 log units lower, 7.07
- O=C(NCc1cc(-c2ccc(C(F)(F)F)nc2)ncn1)C1(NS(=O)(=O)c2cc3cc(F)ccc3o2)CC1 [Example 12, 1-[(5-fluorobenzofuran-2-yl)sulfonylamino]-N-[[6-[6-(trifluoromethyl)-3-pyridyl]pyrimidin-4-yl]methyl]cyclopropanecarboxamide] — 1.40 log units lower, 7.52
- O=C(NCc1cc(-c2ccc(C(F)(F)F)cn2)ncn1)C1(NS(=O)(=O)c2cc3cc(F)ccc3o2)CC1 [Example 13, 1-[(5-fluorobenzofuran-2-yl)sulfonylamino]-N-[[6-[5-(trifluoromethyl)-2-pyridyl]pyrimidin-4-yl]methyl]cyclopropanecarboxamide] — 1.96 log units lower, 6.96
- O=C(NCc1cc(-c2cnc(C(F)(F)F)nc2)ccn1)C1(NS(=O)(=O)c2cc3cc(F)ccc3o2)CC1 [Example 5, 1-[(5-fluorobenzofuran-2-yl)sulfonylamino]-N-[[4-[2-(trifluoromethyl)pyrimidin-5-yl]-2-pyridyl]methyl]cyclopropane-carboxamide] — 2.33 log units lower, 6.59
- O=C(NCc1cc(-c2cnc(C(F)(F)F)nc2)ncn1)C1(NS(=O)(=O)c2cc3cc(F)ccc3o2)CC1 [Example 14, 1-[(5-fluorobenzofuran-2-yl)sulfonylamino]-N-[[6-[2-(trifluoromethyl)pyrimidin-5-yl]pyrimidin-4-yl]methyl]cyclopropanecarboxamide] — 1.59 log units lower, 7.33
- CC(C)N(C1(C(=O)NCc2cc(-c3ccc(C(F)(F)F)nc3)ncn2)CC1)S(=O)(=O)c1cc2cc(F)ccc2o1 [Example 24, 1-[(5-fluorobenzofuran-2-yl)sulfonyl-isopropyl-amino]-N-[[6-[6-(trifluoromethyl)-3-pyridyl]pyrimidin-4-yl]methyl]cyclopropanecarboxamide] — 0.44 log units lower, 8.48
- O=C(NCc1cnnc(-c2ccc(C(F)(F)F)nc2)c1)C1(NS(=O)(=O)c2cc3cc(F)ccc3o2)CC1 [Example 16, 1-[(5-fluorobenzofuran-2-yl)sulfonylamino]-N-[[6-[6-(trifluoromethyl)-3-pyridyl]pyridazin-4-yl]methyl]cyclopropanecarboxamide] — 2.92 log units lower, 6.00
- CN(C)c1nc(CNC(=O)C2(NS(=O)(=O)c3cc4ccccc4o3)CC2)cc(-c2ccc(C(F)(F)F)cc2)n1 [Example 23, 1-(benzofuran-2-ylsulfonylamino)-N-[[2-(dimethylamino)-6-[4-(trifluoromethyl)phenyl]pyrimidin-4-yl]methyl]cyclopropanecarboxamide] — 1.92 log units lower, 7.00
- O=C(NCc1cc(-c2ccc(C(F)(F)F)cc2)ncn1)C1(NS(=O)(=O)c2cc3ccccc3o2)CC1 [Example 21, 1-(benzofuran-2-ylsulfonylamino)-N-[[6-[4-(trifluoromethyl)phenyl]pyrimidin-4-yl]methyl]cyclopropanecarboxamide] — 1.81 log units lower, 7.11
- O=C(NCc1cc(-c2ccc(OC(F)(F)F)cc2)ncn1)C1(NS(=O)(=O)c2cc3cc(F)ccc3o2)CC1 [Example 11, 1-[(5-fluorobenzofuran-2-yl)sulfonylamino]-N-[[6-[4-(trifluoromethoxy)phenyl]pyrimidin-4-yl]methyl]cyclopropanecarboxamide] — 1.52 log units lower, 7.40
- O=C(NCc1ccc(O)c(-c2ccc(C(F)(F)F)cn2)c1)C1(NS(=O)(=O)c2cc3cc(F)ccc3o2)CC1 [Example 18, 1-[(5-fluorobenzofuran-2-yl)sulfonylamino]-N-[[4-hydroxy-3-[5-(trifluoromethyl)-2-pyridyl]phenyl]methyl]-cyclopropanecarboxamide] — 1.32 log units lower, 7.60
- O=C(NCc1cnnc(-c2ccc(C(F)(F)F)cc2)c1)C1(NS(=O)(=O)c2cc3cc(F)ccc3o2)CC1 [Example 15, 1-[(5-fluorobenzofuran-2-yl)sulfonylamino]-N-[[6-[4-(trifluoromethyl)phenyl]pyridazin-4-yl]methyl]cyclopropanecarboxamide] — 2.41 log units lower, 6.51
- O=C(NCc1cncc(-c2ccc(C(F)(F)F)cn2)c1)C1(NS(=O)(=O)c2cc3cc(F)ccc3o2)CC1 [Example 10, 1-[(5-fluorobenzofuran-2-yl)sulfonylamino]-N-[[5-[5-(trifluoromethyl)-2-pyridyl]-3-pyridyl]methyl]cyclopropane-carboxamide] — 1.96 log units lower, 6.96
